Data taken from US20200222406A1, “METHODS FOR TREATING OR PREVENTING CARDIOVASCULAR DISORDERS AND LOWERING RISK OF CARDIOVASCULAR EVENTS” (DALCOR PHARMA UK LTD., LEATHERHEAD, ZUG BRANCH, priority 2017, published 2020).

Columns and labels:
[1] = system: flow-mediated vasodilatation; experiment: Flow-mediated vasodilatation under pharmacological blockade; conditions: Adcy9^Gt/Gt mice
Source text: (§1) Selective pharmacological blockade of the signaling pathways responsible for endothelial-dependent vasodilatation (Vanhoutte et al., Acta Physiol (Oxf). (2017) 219:22-96) was then used to identify the mechanism responsible for the improvement observed in Adcy9^Gt/Gt mice.

[2] = system: endothelial-dependent vasodilatation; experiment: ACh-induced endothelial-dependent vasodilatation under selective pharmacological blockade; set-up: species or system mice
Source text: as §1

[3] = biological target: T1, CETP (Homo sapiens, UniProt P11597); conditions: cited from earlier work
T1 construct: endogenous in cells; host or cells: patients in Phase III clinical trials (plasma CETP)
T1 sequence (P11597 18-493): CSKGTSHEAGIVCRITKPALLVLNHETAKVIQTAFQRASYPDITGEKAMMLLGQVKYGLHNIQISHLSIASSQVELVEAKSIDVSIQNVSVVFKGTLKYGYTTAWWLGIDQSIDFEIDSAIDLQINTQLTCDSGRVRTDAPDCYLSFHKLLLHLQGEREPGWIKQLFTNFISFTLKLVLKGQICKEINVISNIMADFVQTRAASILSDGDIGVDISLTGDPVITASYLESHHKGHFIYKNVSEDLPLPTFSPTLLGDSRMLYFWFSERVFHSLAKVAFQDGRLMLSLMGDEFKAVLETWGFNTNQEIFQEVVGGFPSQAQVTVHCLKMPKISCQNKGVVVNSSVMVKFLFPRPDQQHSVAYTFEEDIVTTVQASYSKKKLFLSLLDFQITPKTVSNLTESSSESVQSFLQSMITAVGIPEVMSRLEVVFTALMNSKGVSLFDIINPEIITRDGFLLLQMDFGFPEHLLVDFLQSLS

[4] = biological target: T1, CETP; conditions: Phase III, with atorvastatin concomitantly vs atorvastatin alone, trial terminated; cited from earlier work
[5] = 600 mg dalcetrapib vs placebo, patients with recent ACS

With `NC(=NCCC[C@H](N)C(=O)O)N[N+](=O)[O-]` [L-NNA] the flow-mediated vasodilatation [1] was “numerically reduced”, the ACh-induced vasodilatation ([2]; Adcy9^Gt/Gt mice) was “inhibited significantly” and the ACh-induced vasodilatation ([2]; WT mice) was “inhibited significantly”.
In the case of `CCC(CC)CC1(C(=O)Nc2ccccc2SC(=O)C(C)C)CCCCC1` [dalcetrapib], the HDL-c [3, 5] is listed as “marked increase”, the cardiovascular events [3, 5] is listed as “did not show a significant reduction” and the “efficacy relative to statins alone” value ([3]; Phase III, trial halted) is listed as “lack of efficacy”.
In the case of `Cc1ccc(Cl)c(Nc2ccccc2C(=O)O)c1Cl` [meclofenamate], the ACh-induced vasodilatation ([2]; Adcy9^Gt/Gt mice) is reported as “inhibited”.
In the case of `CCOC(=O)N1c2ccc(C(F)(F)F)cc2[C@@H](N(Cc2cc(C(F)(F)F)cc(C(F)(F)F)c2)C(=O)OC)C[C@H]1CC` [torcetrapib], the mortality [4] is given as “incidence of mortality”.
